Drawing on US20240239759A1, “ISOXAZOLINE COMPOSITIONS AND THEIR USE AS ANTIPARASITICS” (Intervet Inc., priority 2007, published 2024), this text covers pest or weed control and Flea efficacy for 24 compounds.

SMILES strings stand for the structures. Where two headings read alike, the source gives them in different places.

The test system of experiment [1] is brown dog ticks (Rhipicephalus sanguineus) nymphs. In words: Efficacy of various isoxazolines against brown dog ticks on Guinea pigs (Example 4). In kind it is in vivo. The settings on record: po. Here is the method: In this experiment, Guinea pigs were randomly assigned to a treatment group or a negative control (untreated) group. Each group consisted of three Guinea pigs. On Day Zero, each Guinea pig was infested with 100 vital nymphs of R. sanguineus. On Day 1, the Guinea pigs in the treatment groups were orally administered 10 mg/kg bodyweight of various isoxazolines dissolved in 7% DMF-premix and 93% purified water (aqua ad injectabilia). Engorged, detached nymphs were counted (eN) from Day 4 to […] on engorged nymphs (%) (eN control group—EeN treatment group)×100 eN control group
In addition, collected ticks were assessed for molting into the next stage.

Experiment [2] has as its system cat fleas (Ctenocephalides felis). Briefly: Efficacy of various isoxazolines against cat fleas on mice (Example 3). In kind it is in vivo. The following applies: Ctenocephalides felis, po, read-out: Flea inhibition relative to negative control. The method, then:
In this experiment, mice were randomly assigned to a treatment group or a negative control (untreated) group. Each group consisted of three mice. The mice in the treatment groups were orally administered 20 mg/kg bodyweight of various isoxazolines dissolved in 7% DMF-premix and 93% purified water (aqua ad injectabilia). The application volume of these treatments was 0.01 mL/g bodyweight. One hour after treatment, each mouse was sedated and generally infested (whole body) with 30 vital, adult fleas (C. felis). To achieve this, the sedated mice were placed into an infestation-jar, and the fleas were placed directly onto the fur. After approximately 30 minutes of feeding, fleas were recovered from the mice. Assessments for inhibition and mortality were conducted 1 hr, 24 hr, and 48 hr after each infestation. The efficacy was calculated as the percentage of inhibited fleas in the treatment groups relative to the negative control group.

Experiment [3] has the same test system. Briefly: Adult fleas fed on artificial membranes with spiked blood (Example 1). The following applies: 48 hr continuous feeding. Here is the method:
Adult fleas (20-30) were fed on artificial membranes with blood spiked with Compound 10-1, Compound 11-1, or a positive control (fipronil) at a concentration of 100, 10, or 1 ppm. Flea efficacy was assessed after 48 hr of continuous feeding by comparing the number of killed and damaged fleas with the number of fed fleas. Flea efficacy was 100% for Compound 10-1, Compound 11-1, and fipronil at 100, 10, and 1 ppm.

Where [4] appears, read: Guinea pigs, oral 10 mg/kg on Day 1, infested Day Zero, engorged detached nymphs counted from Day 4, read-out: Inhibition (efficacy on engorged nymphs).
Setting [5] is: 24 h, mice, oral 20 mg/kg, infested 1 hr after treatment, 24 hr after infestation.
[6] abbreviates: 48 h, mice, oral 20 mg/kg, infested 1 hr after treatment, 48 hr after infestation.
The mark [7] stands for this setting: 1 h, mice, oral 20 mg/kg, infested 1 hr after treatment, 1 hr after infestation.

Take `COC(=O)NC(=O)c1ccc(C2=NOC(c3cc(Br)cc(Br)c3)(C(F)(F)F)C2)cc1C` (stereo not shown) [Compound 5-14]: the pest or weed control at 10 mg/kg in experiment [1] (read-out: Inhibition (efficacy on engorged nymphs)) was determined as 22.4%. Further, the pest or weed control at 20 mg/kg came to 4.4% in experiment [2] (1 h), 13.3% in experiment [2] (24 h) and 22.2% in experiment [2] (48 h).

Turning to `CO/N=C\NC(=O)c1ccc(C2=NOC(c3cc(Cl)cc(Cl)c3)(C(F)(F)F)C2)cc1C` (stereo not shown) [Compound 5-43], the pest or weed control at 10 mg/kg in experiment [1] (setting [4]) was 0%. The pest or weed control at 20 mg/kg in experiment [2] (setting [5]) and in experiment [2] (setting [6]) was 92.2% throughout.

Regarding `CCON=CNC(=O)c1ccc(C2=NOC(c3cc(Cl)cc(Cl)c3)(C(F)(F)F)C2)cc1I` (stereo not shown) [Compound 5-44], the pest or weed control at 10 mg/kg in experiment [1] (setting [4]) worked out at 15.6%. Besides, the pest or weed control at 20 mg/kg in experiment [2] (setting [7]) amounted to 0%; in experiment [2] (setting [5]), 75.6%; in experiment [2] (setting [6]) it was 78.9%.

For `Cc1cc(C2=NOC(c3cc(Cl)cc(Cl)c3)(C(F)(F)F)C2)ccc1C(=O)Nc1ncc(C#N)cn1` (stereo not shown) [Compound 5-45], the pest or weed control at 10 mg/kg in experiment [1] (setting [4]) stood at 0%. Besides, the pest or weed control at 20 mg/kg in experiment [2] (setting [7]) was 0%; in experiment [2] (setting [5]), 92.2%; in experiment [2] (setting [6]), 93.3%.

With `COCN(C(=O)c1ccc(C2=NOC(c3cc(Cl)cc(Cl)c3)(C(F)(F)F)C2)cc1C)c1ncc(C#N)cn1` (stereo not shown) [Compound 5-46], the pest or weed control at 10 mg/kg in experiment [1] (setting [4]) amounted to 26.4%. Further, the figures for the pest or weed control at 20 mg/kg in experiment [2] (setting [7]), in experiment [2] (setting [5]) and in experiment [2] (setting [6]) were 0%, 85.6% and 86.7%, respectively.

`COC(=O)N(C(=O)c1ccc(C2=NOC(c3cc(Cl)cc(Cl)c3)(C(F)(F)F)C2)cc1C)N(C)c1ccccc1` (stereo not shown) [Compound 5-47]: in experiment [1] (setting [4]), the pest or weed control at 10 mg/kg was 58.5%. Moreover, the pest or weed control at 20 mg/kg in experiment [2] (setting [7]) came to 0%; in experiment [2] (setting [5]), 95.6%; in experiment [2] (setting [6]), 96.7%.

Take `CON=CNC(=O)c1ccc(C2=NOC(c3cc(Cl)cc(Cl)c3)(C(F)(F)F)C2)cc1Cl` (stereo not shown) [Compound 5-51]: the pest or weed control at 10 mg/kg in experiment [1] (setting [4]) came to 52.1%. The pest or weed control at 20 mg/kg was 0% in experiment [2] (setting [7]), 97.8% in experiment [2] (setting [5]) and 97.8% in experiment [2] (setting [6]).

For `Cc1cc(C2=NOC(c3cc(Cl)cc(Cl)c3)(C(F)(F)F)C2)ccc1C(=O)NN(C)c1ccccc1` (stereo not shown) [Compound 5-52], the pest or weed control at 10 mg/kg in experiment [1] (setting [4]) came to 93.4%. For the same compound, the pest or weed control at 20 mg/kg is 0% in experiment [2] (setting [7]), 96.7% in experiment [2] (setting [5]) and 96.7% in experiment [2] (setting [6]).

For the compound `CCOCN(C(=O)OC)C(=O)c1ccc(C2=NOC(c3cc(Cl)cc(Cl)c3)(C(F)(F)F)C2)cc1I` (stereo not shown) [Compound 5-56], in experiment [1] (setting [4]), the pest or weed control at 10 mg/kg is 76%. Besides, the figures for the pest or weed control at 20 mg/kg in experiment [2] (setting [7]), in experiment [2] (setting [5]) and in experiment [2] (setting [6]) were 0%, 87.8% and 88.9%, respectively.

As for `CC(=O)N(C(=O)c1ccc(C2=NOC(c3cc(Cl)cc(Cl)c3)(C(F)(F)F)C2)cc1C)N(C)c1ccccc1` (stereo not shown) [Compound 5-57], the pest or weed control at 20 mg/kg in experiment [2] (setting [7]) worked out at 0%; in experiment [2] (setting [5]) it was 86.7%; in experiment [2] (setting [6]), 87.7%.

Regarding `CCC(=O)N(Cc1cscn1)C(=O)c1ccc(C2=NOC(c3cc(Cl)cc(Cl)c3)(C(F)(F)F)C2)cc1C` (stereo not shown) [Compound 5-58], in experiment [1] (setting [4]), the pest or weed control at 10 mg/kg came out at 100%. In addition, the values for the pest or weed control at 20 mg/kg in experiment [2] (setting [7]), in experiment [2] (setting [5]) and in experiment [2] (setting [6]) were 11.1%, 100% and 100%, respectively.

For `NC(=O)NC(=O)c1ccc(C2=NOC(c3cc(Cl)cc(Cl)c3)(C(F)(F)F)C2)cc1I` (stereo not shown) [Compound 5-59], the pest or weed control at 10 mg/kg in experiment [1] (setting [4]) amounted to 96.3%. The figures for the pest or weed control at 20 mg/kg in experiment [2] (setting [7]), in experiment [2] (setting [5]) and in experiment [2] (setting [6]) were 18.8%, 94.4% and 95.6%, respectively.

Consider `CC(=O)N(C(=O)c1ccc(C2=NOC(c3cc(Cl)cc(Cl)c3)(C(F)(F)F)C2)cc1C)c1ncc(Cl)cn1` (stereo not shown) [Compound 5-60], for which the pest or weed control at 10 mg/kg in experiment [1] (setting [4]) turned out to be 78.9%. In addition, the pest or weed control at 20 mg/kg in experiment [2] (setting [7]) turned out to be 26.6%; in experiment [2] (setting [5]) it was 96.7%; in experiment [2] (setting [6]) it was 96.7%.

For `CO/N=C\NC(=O)c1ccc(C2=NOC(c3cc(Cl)cc(Cl)c3)(C(F)(F)F)C2)cc1I` (stereo not shown) [Compound 5-62], in experiment [1] (setting [4]), the pest or weed control at 10 mg/kg was found to be 88.5%. The pest or weed control at 20 mg/kg was determined as 10% in experiment [2] (setting [7]), 81.1% in experiment [2] (setting [5]) and 81.1% in experiment [2] (setting [6]).

In the case of `COCN(C(=O)OC)C(=O)c1ccc(C2=NOC(c3cc(Cl)cc(Cl)c3)(C(F)(F)F)C2)cc1C` (stereo not shown) [Compound 5-63], the pest or weed control at 10 mg/kg in experiment [1] (setting [4]) stood at 85.3%. The pest or weed control at 20 mg/kg in experiment [2] (setting [7]) was determined as 30%; in experiment [2] (setting [5]) it was 95.6%; in experiment [2] (setting [6]), 98.9%.

`Cc1cc(C2=NOC(c3cc(Cl)cc(Cl)c3)(C(F)(F)F)C2)ccc1C(=O)NC1CCCO1` (stereo not shown) [Compound 5-64]: the pest or weed control at 20 mg/kg is 50% in experiment [2] (setting [7]), 97.8% in experiment [2] (setting [5]) and 97.8% in experiment [2] (setting [6]).

As to `CCOCN(C(=O)OC)C(=O)c1ccc(C2=NOC(c3cc(Cl)cc(Cl)c3)(C(F)(F)F)C2)cc1C` (stereo not shown) [Compound 5-65], the pest or weed control at 10 mg/kg in experiment [1] (setting [4]) was found to be 79.2%. Further, the pest or weed control at 20 mg/kg in experiment [2] (setting [7]) was found to be 58.8%; in experiment [2] (setting [5]), 92.2%; in experiment [2] (setting [6]) it was 93.3%.

For the compound `Cc1cc(C2=NOC(c3cc(Cl)cc(Cl)c3)(C(F)(F)F)C2)ccc1C(=O)NCc1cscn1` (stereo not shown) [Compound 5-66], the pest or weed control at 10 mg/kg in experiment [1] (setting [4]) was 100%. The pest or weed control at 20 mg/kg came out at 77.8% in experiment [2] (setting [7]), 100% in experiment [2] (setting [5]) and 100% in experiment [2] (setting [6]).

Take `C#CCNC(=O)CNC(=O)c1ccc(C2=NOC(c3cc(Cl)cc(Cl)c3)(C(F)(F)F)C2)cc1C` (stereo not shown) [Compound 5-67]: the pest or weed control at 20 mg/kg was found to be 80% in experiment [2] (setting [7]), 100% in experiment [2] (setting [5]) and 100% in experiment [2] (setting [6]).

As for `Cc1cc(C2=NOC(c3cc(Cl)cc(Cl)c3)(C(F)(F)F)C2)ccc1C(=O)N[C@@H]1CCOC1` (stereo partly shown) [Compound 5-68], in experiment [1] (setting [4]), the pest or weed control at 10 mg/kg is 100%. The pest or weed control at 20 mg/kg was 75.5% in experiment [2] (setting [7]), 91.1% in experiment [2] (setting [5]) and 95.6% in experiment [2] (setting [6]).

`CO/N=C\NC(=O)c1ccc(C2=NOC(c3cc(Cl)cc(Cl)c3)(C(F)(F)F)C2)cc1C` (stereo not shown) [Compound 10-1, (Z)-4-[5-(3,5-dichlorophenyl)-5-trifluoromethyl-4,5-dihydroisoxazol-3-yl]-N-[(methoxyimino)methyl]-2-methylbenzamide]: the Flea efficacy in experiment [3] (blood spiked at 1 ppm), in experiment [3] (blood spiked at 10 ppm) and in experiment [3] (blood spiked at 100 ppm) was 100% each time.

Take `Cc1cc(C2=NO[C@](c3cc(Cl)cc(Cl)c3)(C(F)(F)F)C2)ccc1C(=O)NCC(=O)NCC(F)(F)F` [Compound 11-1R]: the pest or weed control at 20 mg/kg in experiment [2] (setting [7]), in experiment [2] (setting [5]) and in experiment [2] (setting [6]) was 0% in each case.

`CCNC(=O)CNC(=O)c1ccc(C2=NOC(c3cc(Cl)cc(Cl)c3)(C(F)(F)F)C2)cc1C` (stereo not shown) [Compound 14-1]: the pest or weed control at 20 mg/kg in experiment [2] (setting [7]) came out at 97.8%; in experiment [2] (setting [5]), 100%; in experiment [2] (setting [6]), 100%.

For `Cc1cc(C2=NOC(c3cc(Cl)cc(Cl)c3)(C(F)(F)F)C2)ccc1C(=S)NCc1cscn1` (stereo not shown) [Compound X-1], the pest or weed control at 20 mg/kg in experiment [2] (setting [7]) came to 4.3%; in experiment [2] (setting [5]), 100%; in experiment [2] (setting [6]), 100%.
